Series [1] is described as follows: Metabolism of the compound in human plasma (hydrolysis to the active metabolite). To be noted: in vitro human plasma; for Remaining Amount of the Prodrug Compound (%): 37° C., 200 rpm, time point of the tabulated value not stated (samples at 0, 15, 30, 60 and 120 min). Type of series: in vitro ADME. How it is done: (1) 40 mM pure acetonitrile stock solutions of Compound 1, Compound 7 and Compound a were prepared;
(2) the stock solution (25 μL) of Compound a was mixed with 1 mL of human plasma and vortexed for 30 s, a sample (200 μL) was added to 800 μL of acetonitrile to precipitate proteins and vortexed for 1 min, and then the reaction was stopped as a control of an active metabolite of loxoprofen; and 40 mM stock solutions of Compound 1 and Compound 7 were diluted 200 times as prodrug controls;
(4) the pure acetonitrile stock solution (100 μL) of each of Compound 1 and Compound 7 was mixed with 4 mL of human plasma, vortexed for 30 s, and oscillated at 200 rpm in an oscillating water bath heater with a constant temperature of 37° C.;
(5) samples (200 μL) were taken at different time points (0, 15, 30, 60 and 120 min) with three samples at each time point, added with 800 μL of acetonitrile to precipitate proteins and vortexed for 1 min, and then the reaction was stopped; and a blank plasma control was obtained in the same manner;
(6) the samples were centrifuged at 12000 rpm for 10 min at 4° C., the supernatant was taken and injected at a volume of 30 μL (through a filter membrane), and changes of a peak area were recorded;
(7) hydrolysis rates of Compound 1 and Compound 7 were observed and analyzed.

Series [2] can be described thus: Physicochemical stability of the active metabolite of loxoprofen. The settings on record: high temperature, high humidity, cold white fluorescent lamp and ultraviolet lamp.
A short description of series [3]: Solubility of the active metabolite of loxoprofen. Type of series: physicochemical.

For the molecule `CCOC(=O)OC(C)OC(=O)[C@@H](C)c1ccc(C[C@H]2CCC[C@@H]2O)cc1` (some centres unmarked) [Compound 1], in series [1], the “transformation into the active metabolite” value is “rapidly transformed into the active metabolite” and the “Remaining Amount of the Prodrug Compound (%)” value is on record as 35.41% ± 1.83%.
As to `CC(=O)OC(C)OC(=O)[C@@H](C)c1ccc(C[C@H]2CCC[C@@H]2O)cc1` (some centres unmarked) [Compound 7], in series [1], the “transformation into the active metabolite” value is given as “rapidly transformed into the active metabolite” and the “Remaining Amount of the Prodrug Compound (%)” value is on record as 21.41% ± 0.49%. In addition, the metabolic rate entry in series [1] (compared with Compound 1) is given as “slightly faster than that of Compound 1 without a significant difference”.
`C[C@H](C(=O)O)c1ccc(C[C@H]2CCC[C@@H]2O)cc1` [Compound a, (S)-2-(4-(((1R, 2S)-2-hydroxycyclopentyl)methyl)phenyl)propionic acid]: the physicochemical stability result in series [2] is reported as “poor physicochemical stability”. In addition, the solubility result was “soluble” in series [3] (in a slightly alkaline aqueous solution) and “low solubility” in series [3] (in pure water).

For the origin of these results see patent US20220274911A1, “ARYLPROPIONIC ACID DERIVATIVE, PHARMACEUTICAL COMPOSITION AND PREPARATION METHOD AND APPLICATION THEREOF” (NANJING HERON PHARMACEUTICAL SCIENCE AND TECHNOLOGY CO., …, priority 2020, published 2022).
